Assay results taken from US11186548B2 (priority 2017, dated 2021).
“Also recorded” adds a separate entry of the source. Read-outs that look alike come from different tables or passages of the source.

How the values were obtained:
human AChE = human AChE (Homo sapiens, UniProt P22303); format: biochemical
[1] = male, guinea pig, in vivo
[2] = guinea pig, in vivo; for percentage of the administered dose in the brain / LogBB / brain concentration / plasma concentration: male; for LogBB / brain concentration / plasma concentration: iv
in vivo [3] = conditions: male, guinea pig, iv
in vivo [4] = conditions: male, guinea pig
CYP3A4 = CYP3A4 (Homo sapiens, UniProt P08684); experiment: biochemical
Chain of CYP3A4 (P08684 whole entry): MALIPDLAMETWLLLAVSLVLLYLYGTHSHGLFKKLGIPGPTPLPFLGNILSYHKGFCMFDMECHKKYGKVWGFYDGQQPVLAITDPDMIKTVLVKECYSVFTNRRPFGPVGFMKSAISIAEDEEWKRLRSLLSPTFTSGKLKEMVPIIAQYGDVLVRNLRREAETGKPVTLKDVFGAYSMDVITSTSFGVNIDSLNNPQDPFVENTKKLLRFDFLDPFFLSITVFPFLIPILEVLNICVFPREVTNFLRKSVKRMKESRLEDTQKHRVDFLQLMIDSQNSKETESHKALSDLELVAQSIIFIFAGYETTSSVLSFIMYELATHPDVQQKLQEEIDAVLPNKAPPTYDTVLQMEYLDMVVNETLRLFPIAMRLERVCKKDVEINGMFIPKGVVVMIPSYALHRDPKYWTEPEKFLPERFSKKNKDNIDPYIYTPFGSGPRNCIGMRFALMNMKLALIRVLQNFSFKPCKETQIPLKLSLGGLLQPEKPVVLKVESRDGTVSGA

[5] = Microsomal stability assay; conditions: microsomes
[6] = Human plasma stability assay
hERG channel = hERG channel (Homo sapiens, UniProt Q12809); experiment: hERG channel patch clamp assay
Chain of hERG channel (Q12809 whole entry): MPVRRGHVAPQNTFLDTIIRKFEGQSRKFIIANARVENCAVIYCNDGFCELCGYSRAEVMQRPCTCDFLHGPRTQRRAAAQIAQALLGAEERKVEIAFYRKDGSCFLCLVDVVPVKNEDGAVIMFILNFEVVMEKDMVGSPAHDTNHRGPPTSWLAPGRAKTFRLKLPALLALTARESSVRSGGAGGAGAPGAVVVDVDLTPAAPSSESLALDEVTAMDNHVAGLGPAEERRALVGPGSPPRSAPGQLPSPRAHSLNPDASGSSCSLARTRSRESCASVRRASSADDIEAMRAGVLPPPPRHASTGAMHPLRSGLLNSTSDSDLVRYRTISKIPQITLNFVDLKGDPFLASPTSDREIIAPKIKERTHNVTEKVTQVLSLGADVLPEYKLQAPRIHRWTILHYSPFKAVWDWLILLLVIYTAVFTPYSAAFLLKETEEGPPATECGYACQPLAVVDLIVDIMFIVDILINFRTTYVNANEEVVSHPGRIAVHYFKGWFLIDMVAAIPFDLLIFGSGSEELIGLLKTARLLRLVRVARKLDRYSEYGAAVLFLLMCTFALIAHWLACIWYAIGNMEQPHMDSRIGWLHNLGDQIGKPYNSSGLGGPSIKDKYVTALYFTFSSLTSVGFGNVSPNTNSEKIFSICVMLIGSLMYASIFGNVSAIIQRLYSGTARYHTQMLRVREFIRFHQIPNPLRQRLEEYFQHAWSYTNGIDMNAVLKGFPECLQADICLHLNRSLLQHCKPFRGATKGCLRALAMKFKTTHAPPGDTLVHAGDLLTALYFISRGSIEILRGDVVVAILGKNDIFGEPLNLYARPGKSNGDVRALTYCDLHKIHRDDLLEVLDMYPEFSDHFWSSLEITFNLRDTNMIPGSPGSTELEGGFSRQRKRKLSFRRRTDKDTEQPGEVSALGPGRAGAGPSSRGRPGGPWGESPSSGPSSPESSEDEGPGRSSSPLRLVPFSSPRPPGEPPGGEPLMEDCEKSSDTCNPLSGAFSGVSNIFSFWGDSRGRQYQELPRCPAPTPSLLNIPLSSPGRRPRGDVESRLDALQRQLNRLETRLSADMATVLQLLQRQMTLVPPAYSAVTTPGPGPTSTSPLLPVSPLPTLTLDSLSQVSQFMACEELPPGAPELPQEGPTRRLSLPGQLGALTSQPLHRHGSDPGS

MDR1 (P-gp) = MDR1 (P-gp) (Homo sapiens, UniProt P08183); experiment: MDR1-MDCK efflux assay (net flux ratio); conditions: 37° C., three hours
Chain of MDR1 (P-gp) (P08183 whole entry): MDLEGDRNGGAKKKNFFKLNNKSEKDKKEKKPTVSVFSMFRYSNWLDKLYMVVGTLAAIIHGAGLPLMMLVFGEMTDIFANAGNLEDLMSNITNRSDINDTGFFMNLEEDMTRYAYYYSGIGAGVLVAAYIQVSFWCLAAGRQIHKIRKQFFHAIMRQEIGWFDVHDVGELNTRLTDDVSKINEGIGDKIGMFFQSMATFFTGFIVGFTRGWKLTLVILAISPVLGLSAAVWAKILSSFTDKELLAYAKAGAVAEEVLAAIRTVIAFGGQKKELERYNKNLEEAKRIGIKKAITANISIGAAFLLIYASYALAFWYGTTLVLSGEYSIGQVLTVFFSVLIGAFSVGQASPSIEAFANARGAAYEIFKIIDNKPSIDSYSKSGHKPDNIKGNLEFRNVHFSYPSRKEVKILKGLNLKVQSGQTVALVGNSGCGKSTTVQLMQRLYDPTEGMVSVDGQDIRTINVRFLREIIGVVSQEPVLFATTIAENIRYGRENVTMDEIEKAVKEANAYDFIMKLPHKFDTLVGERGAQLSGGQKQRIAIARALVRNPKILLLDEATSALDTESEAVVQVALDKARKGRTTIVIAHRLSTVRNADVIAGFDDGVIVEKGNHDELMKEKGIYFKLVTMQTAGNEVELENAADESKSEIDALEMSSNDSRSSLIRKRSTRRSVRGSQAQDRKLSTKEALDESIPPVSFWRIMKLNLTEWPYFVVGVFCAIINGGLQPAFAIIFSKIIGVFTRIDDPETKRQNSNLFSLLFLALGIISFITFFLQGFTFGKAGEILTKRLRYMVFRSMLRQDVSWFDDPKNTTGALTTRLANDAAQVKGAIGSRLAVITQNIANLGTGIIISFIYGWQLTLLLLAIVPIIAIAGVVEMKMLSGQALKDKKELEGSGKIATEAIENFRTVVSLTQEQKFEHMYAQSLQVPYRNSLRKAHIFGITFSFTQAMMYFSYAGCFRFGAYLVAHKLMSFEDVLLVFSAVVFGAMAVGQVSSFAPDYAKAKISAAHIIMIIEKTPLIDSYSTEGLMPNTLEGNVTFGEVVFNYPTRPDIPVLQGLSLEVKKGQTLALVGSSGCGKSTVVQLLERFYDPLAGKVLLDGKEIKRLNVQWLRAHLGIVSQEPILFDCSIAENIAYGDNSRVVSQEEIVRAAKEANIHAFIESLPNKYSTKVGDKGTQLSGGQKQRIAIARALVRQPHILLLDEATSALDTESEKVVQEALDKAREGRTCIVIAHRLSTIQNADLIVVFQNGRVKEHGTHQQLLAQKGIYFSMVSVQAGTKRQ

[7] = Parallel Artificial Membrane Permeability Assay (PAMPA); conditions: about 100 μM, five hours, 25° C.
CYP2C19 = CYP2C19 (Homo sapiens, UniProt P33261); experiment: Cytochrome P450 inhibition with fluorescent probe substrate
Chain of CYP2C19 (P33261 whole entry): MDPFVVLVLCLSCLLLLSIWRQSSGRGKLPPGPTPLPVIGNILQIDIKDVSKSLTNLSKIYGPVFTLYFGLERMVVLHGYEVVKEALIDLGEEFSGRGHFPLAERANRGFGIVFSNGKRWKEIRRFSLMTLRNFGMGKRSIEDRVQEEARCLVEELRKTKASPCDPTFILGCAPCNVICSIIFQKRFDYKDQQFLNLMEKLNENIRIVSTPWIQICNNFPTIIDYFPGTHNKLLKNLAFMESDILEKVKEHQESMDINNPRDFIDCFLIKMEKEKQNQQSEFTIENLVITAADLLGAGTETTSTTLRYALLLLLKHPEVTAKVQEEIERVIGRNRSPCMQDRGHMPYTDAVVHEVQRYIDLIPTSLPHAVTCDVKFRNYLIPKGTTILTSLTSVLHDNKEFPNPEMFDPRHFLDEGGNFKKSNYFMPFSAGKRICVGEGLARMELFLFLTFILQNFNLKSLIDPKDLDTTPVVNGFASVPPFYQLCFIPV

Chain of human AChE (P22303-2 with tags, fused parts or gaps limits assumed): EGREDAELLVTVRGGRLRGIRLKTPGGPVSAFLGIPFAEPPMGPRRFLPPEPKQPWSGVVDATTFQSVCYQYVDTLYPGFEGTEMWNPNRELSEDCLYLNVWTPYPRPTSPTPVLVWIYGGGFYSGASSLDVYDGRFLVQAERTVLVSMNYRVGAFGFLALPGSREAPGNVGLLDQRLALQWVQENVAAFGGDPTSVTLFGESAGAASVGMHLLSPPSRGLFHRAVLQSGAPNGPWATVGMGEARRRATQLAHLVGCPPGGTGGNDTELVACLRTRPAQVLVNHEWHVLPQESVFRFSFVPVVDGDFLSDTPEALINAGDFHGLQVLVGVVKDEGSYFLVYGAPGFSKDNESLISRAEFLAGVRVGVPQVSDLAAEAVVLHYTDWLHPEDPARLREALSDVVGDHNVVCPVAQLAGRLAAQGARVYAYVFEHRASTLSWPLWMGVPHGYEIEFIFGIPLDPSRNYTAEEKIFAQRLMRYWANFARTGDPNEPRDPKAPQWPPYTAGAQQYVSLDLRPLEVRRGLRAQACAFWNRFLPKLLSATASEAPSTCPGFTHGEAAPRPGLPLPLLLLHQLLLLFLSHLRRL

C[C@@H](CN1CCCc2ccccc2C1)NC(=O)/C=N/O [LLNL-02]
fraction of AChE reactivated at 30 minutes, methylated versus des-methyl analog (human AChE): significantly lower reactivation relative to the des-methyl counterpart
reactivation of adducted AChE relative to the 2-PAM standard of care (human AChE): approximately 40%
increase in mean AUC0-t [1]: 2.5 fold
AUC0-t ([1]; iv, 10 mg/kg): 28480 ng·h/mL
T½ elim. ([1]; iv, 10 mg/kg): 606.6 min
Vd (area) ([1]; iv, 10 mg/kg): 6.32268 L/kg
time of Cmax in the brain [2]: 5 min
percentage of the administered dose in the brain [2]: 0.3-0.7%
percentage of the administered dose in the brain ([2]; 1 mg/kg): 0.3%
percentage of the administered dose in the brain ([2]; 5 mg/kg): 0.3%
percentage of the administered dose in the brain ([2]; 20 mg/kg): 0.7%
LogBB ([2]; 1 mg/kg): −0.879
brain concentration ([2]; 1 mg/kg): 0.191 µg/g
plasma concentration ([2]; 1 mg/kg): 1.443 µg/g
LogBB ([2]; 5 mg/kg): −0.649
brain concentration ([2]; 5 mg/kg): 1.421 µg/g
plasma concentration ([2]; 5 mg/kg): 6.352 µg/g
LogBB ([2]; 10 mg/kg): −0.311
brain concentration ([2]; 10 mg/kg): 5.269 µg/g
plasma concentration ([2]; 10 mg/kg): 10.790 µg/g
LogBB ([2]; 20 mg/kg): −0.276
brain concentration ([2]; 20 mg/kg): 10.048 µg/g
plasma concentration ([2]; 20 mg/kg): 19.009 µg/g
half-life (in vivo [3]; 1 mg/kg, T½ dist.): 23.4 min
half-life (in vivo [3]; 5 mg/kg, T½ dist.): 24 min
AUC(0-inf) (in vivo [3]; 10 mg/kg): 73400 ng·h/mL
AUC0-t (in vivo [3]; 10 mg/kg, AUC0-t): 28400 ng·h/mL
half-life (in vivo [3]; 10 mg/kg, T½ dist.): 15 min
half-life (in vivo [3]; 10 mg/kg, T½ elim.): 606 min
Vd (in vivo [3]; 10 mg/kg, Vd (area)): 6.32 L/kg
half-life (in vivo [3]; 20 mg/kg, T½ dist.): 23.4 min
Vd (in vivo [3]; 20 mg/kg, apparent volume of distribution (Vd)): 3.75 to 6.32 L/kg
half-life (in vivo [3]; 20 mg/kg, mean apparent distribution half-life (t1/2α)): 15 to 24 min
half-life (in vivo [3]; 20 mg/kg, terminal half-life (t1/2 β)): 606 to 1130 min
clearance (in vivo [3]; 20 mg/kg, total clearance from plasma (CL)): 2.27 to 5.19 mL/min/kg
Cmax (in vivo [4]): 1420 to 10000 ng/g
IC50 (CYP3A4): > 10 µM
half-life [5]: > 60 min
microsomal CLint [5]: < 23 µL/min/mg
human plasma stability (percent remaining after 1 hour) ([6]; human plasma, 1 hour at 37° C.): over 90%
degradation in human plasma ([6]; one hour): < 10%
concentration not toxic to the hERG channel (hERG channel): > 10 µM
MDR1 efflux substrate status from net flux ratio (MDR1 (P-gp)): may be a moderate efflux substrate; also recorded: moderate efflux substate
PAMPA permeability [7]: high permeability through the BBB; also recorded: high permeability comparable to that of the highly permeable positive control compound, diazepam; also recorded: elevated permeability relative to other selected compounds; also recorded: superior permeation relative to LLNL-03
IC50 (CYP2C19): > 10 µM
